{"source": "PubChem BioAssay (NCI)", "assay_in_all_cases": "NCI anticancer screen, dose series, 48 h", "key": {"[1]": {"system": "NCI-H226 lung"}, "[2]": {"system": "M14 melanoma"}, "[3]": {"system": "NCI-H23 lung"}, "[4]": {"system": "HL-60(TB) leukemia"}, "[5]": {"system": "IGROV1 ovarian"}, "[6]": {"system": "SF-539 CNS"}, "[7]": {"system": "MOLT-4 leukemia"}, "[8]": {"system": "K-562 leukemia"}, "[9]": {"system": "HCT-15 colon"}, "[10]": {"system": "LOX IMVI melanoma"}}, "note": "Several values for one entry are separate records, joined by “and”; a condition that tells them apart may be missing. Identical values can stand only once.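 Briefly, cells in 96-well plates were exposed to five compound concentrations for 48 h, and endpoints were estimated by linear interpolation. At the GI50, growth is halved. The concentration for full growth arrest is given as TGI.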"}
{"smiles": "C/C(=C(/c1ccc(O)cc1)c1ccc(Cl)cc1)c1ccccc1", "values": [{"measurement": "GI50", "setting": "[1]", "value": 2.75, "unit": "µM"}, {"measurement": "TGI", "setting": "[1]", "value": 7.9, "unit": "µM"}, {"measurement": "GI50", "setting": "[2]", "value": 0.654, "unit": "µM"}, {"measurement": "TGI", "setting": "[2]", "value": 1.93, "unit": "µM"}, {"measurement": "GI50", "setting": "[3]", "value": 0.625, "unit": "µM"}, {"measurement": "TGI", "setting": "[3]", "value": 1.84, "unit": "µM"}, {"measurement": "GI50", "setting": "[4]", "value": 0.646, "unit": "µM"}, {"measurement": "TGI", "setting": "[4]", "value": 1.71, "unit": "µM"}, {"measurement": "GI50", "setting": "[5]", "value": 0.671, "unit": "µM"}, {"measurement": "TGI", "setting": "[5]", "value": 2.22, "unit": "µM"}, {"measurement": "GI50", "setting": "[6]", "value": 0.545, "unit": "µM"}, {"measurement": "TGI", "setting": "[6]", "value": 1.25, "unit": "µM"}, {"measurement": "GI50", "setting": "[7]", "value": 0.678, "unit": "µM"}, {"measurement": "TGI", "setting": "[7]", "value": 2.41, "unit": "µM"}, {"measurement": "GI50", "setting": "[8]", "value": 0.539, "unit": "µM"}, {"measurement": "TGI", "setting": "[8]", "value": 2.83, "unit": "µM"}, {"measurement": "GI50", "setting": "[9]", "value": 0.639, "unit": "µM"}, {"measurement": "TGI", "setting": "[9]", "value": 2.06, "unit": "µM"}, {"measurement": "GI50", "setting": "[10]", "value": 0.432, "unit": "µM"}, {"measurement": "TGI", "setting": "[10]", "value": 0.788, "unit": "µM"}]}
{"smiles": "Cc1cnc(Nc2ccc(OCCN3CCCC3)cc2)nc1Nc1cccc(S(=O)(=O)NC(C)(C)C)c1", "values": [{"measurement": "GI50", "setting": "[1]", "value": "0.146 µM and 0.813 µM"}, {"measurement": "TGI", "setting": "[1]", "value": "1.9 µM and 2.97 µM"}, {"measurement": "GI50", "setting": "[2]", "value": "0.19 µM and 0.61 µM"}, {"measurement": "TGI", "setting": "[2]", "value": "3.54 µM and 6.25 µM"}, {"measurement": "GI50", "setting": "[3]", "value": "0.307 µM and 1.92 µM"}, {"measurement": "TGI", "setting": "[3]", "value": "7.05 µM and > 10 µM"}, {"measurement": "GI50", "setting": "[4]", "value": 0.516, "unit": "µM"}, {"measurement": "TGI", "setting": "[4]", "value": "0.6 µM and 2.16 µM"}, {"measurement": "GI50", "setting": "[5]", "value": "0.0833 µM and 0.558 µM"}, {"measurement": "TGI", "setting": "[5]", "value": "1.75 µM and 4.49 µM"}, {"measurement": "GI50", "setting": "[6]", "value": "0.332 µM and 1.52 µM"}, {"measurement": "TGI", "setting": "[6]", "value": "2.15 µM and 4.91 µM"}, {"measurement": "GI50", "setting": "[7]", "value": "0.18 µM and 1.14 µM"}, {"measurement": "TGI", "setting": "[7]", "value": "12.5 µM and > 10 µM"}, {"measurement": "GI50", "setting": "[8]", "value": "0.15 µM and 0.676 µM"}, {"measurement": "TGI", "setting": "[8]", "value": "> 33.6", "unit": "µM"}, {"measurement": "GI50", "setting": "[9]", "value": "0.33 µM and 1.79 µM"}, {"measurement": "TGI", "setting": "[9]", "value": "11.5 µM and > 10 µM"}, {"measurement": "GI50", "setting": "[10]", "value": "0.211 µM and 0.938 µM"}, {"measurement": "TGI", "setting": "[10]", "value": "1.61 µM and 2.3 µM"}]}
{"smiles": "COc1cc(/C=C2\\CC3C4CC=C5C[C@@H](O)CC[C@]5(C)C4CC[C@]3(C)C2=O)ccc1OCCCn1ccnc1", "note": "(stereo not given in full)", "values": [{"measurement": "GI50", "setting": "[1]", "value": 19.6, "unit": "µM"}, {"measurement": "TGI", "setting": "[1]", "value": 39.2, "unit": "µM"}, {"measurement": "GI50", "setting": "[2]", "value": 15.2, "unit": "µM"}, {"measurement": "TGI", "setting": "[2]", "value": 33.3, "unit": "µM"}, {"measurement": "GI50", "setting": "[3]", "value": 18.1, "unit": "µM"}, {"measurement": "TGI", "setting": "[3]", "value": 32.9, "unit": "µM"}, {"measurement": "GI50", "setting": "[4]", "value": 19.4, "unit": "µM"}, {"measurement": "TGI", "setting": "[4]", "value": 37.3, "unit": "µM"}, {"measurement": "GI50", "setting": "[5]", "value": 23.7, "unit": "µM"}, {"measurement": "TGI", "setting": "[5]", "value": 52.8, "unit": "µM"}, {"measurement": "GI50", "setting": "[6]", "value": 15.7, "unit": "µM"}, {"measurement": "TGI", "setting": "[6]", "value": 31.1, "unit": "µM"}, {"measurement": "GI50", "setting": "[7]", "value": 20.8, "unit": "µM"}, {"measurement": "TGI", "setting": "[7]", "value": 41.8, "unit": "µM"}, {"measurement": "GI50", "setting": "[8]", "value": 17.6, "unit": "µM"}, {"measurement": "TGI", "setting": "[8]", "value": 39.2, "unit": "µM"}, {"measurement": "GI50", "setting": "[9]", "value": 10.2, "unit": "µM"}, {"measurement": "TGI", "setting": "[9]", "value": 31.3, "unit": "µM"}, {"measurement": "GI50", "setting": "[10]", "value": 0.509, "unit": "µM"}, {"measurement": "TGI", "setting": "[10]", "value": 16.4, "unit": "µM"}]}
{"smiles": "C[C@]12CC[C@H]3[C@@H](CC[C@]4(O)C[C@@H](O)CC[C@]34CO)[C@@]1(O)CC[C@@H]2C1=CC(=O)OC1", "values": [{"measurement": "TGI", "setting": "[1]", "value": 13.8, "unit": "µM"}, {"measurement": "TGI", "setting": "[2]", "value": 14.5, "unit": "µM"}, {"measurement": "TGI", "setting": "[3]", "value": 4.98, "unit": "µM"}, {"measurement": "TGI", "setting": "[4]", "value": 8.23, "unit": "µM"}, {"measurement": "TGI", "setting": "[5]", "value": "> 100", "unit": "µM"}, {"measurement": "TGI", "setting": "[6]", "value": 2.41, "unit": "µM"}, {"measurement": "TGI", "setting": "[7]", "value": 0.726, "unit": "µM"}, {"measurement": "TGI", "setting": "[8]", "value": "> 100", "unit": "µM"}, {"measurement": "TGI", "setting": "[9]", "value": 4.72, "unit": "µM"}, {"measurement": "TGI", "setting": "[10]", "value": 8.19, "unit": "µM"}]}
{"smiles": "NNS(=O)(=O)c1cc(C(=O)O)cc(C(=O)O)c1", "values": [{"measurement": "TGI", "setting": "[1]", "value": "> 100", "unit": "µM"}, {"measurement": "TGI", "setting": "[2]", "value": "> 100", "unit": "µM"}, {"measurement": "TGI", "setting": "[3]", "value": "> 100", "unit": "µM"}, {"measurement": "TGI", "setting": "[4]", "value": "> 100", "unit": "µM"}, {"measurement": "TGI", "setting": "[5]", "value": "> 100", "unit": "µM"}, {"measurement": "TGI", "setting": "[6]", "value": "> 100", "unit": "µM"}, {"measurement": "TGI", "setting": "[7]", "value": "> 100", "unit": "µM"}, {"measurement": "TGI", "setting": "[8]", "value": "> 100", "unit": "µM"}, {"measurement": "TGI", "setting": "[9]", "value": "> 100", "unit": "µM"}, {"measurement": "TGI", "setting": "[10]", "value": "> 100", "unit": "µM"}]}
{"smiles": "COC(=O)[C@H]1N[C@@H](C(=O)OC)C23CCC[C@H]2CC[C@]1(C(OC)OC)C3", "values": [{"measurement": "TGI", "setting": "[1]", "value": "> 100", "unit": "µM"}, {"measurement": "TGI", "setting": "[2]", "value": "> 100", "unit": "µM"}, {"measurement": "TGI", "setting": "[3]", "value": "> 100", "unit": "µM"}, {"measurement": "TGI", "setting": "[4]", "value": "> 100", "unit": "µM"}, {"measurement": "TGI", "setting": "[5]", "value": "> 100", "unit": "µM"}, {"measurement": "TGI", "setting": "[6]", "value": "> 100", "unit": "µM"}, {"measurement": "TGI", "setting": "[7]", "value": "> 100", "unit": "µM"}, {"measurement": "TGI", "setting": "[8]", "value": "> 100", "unit": "µM"}, {"measurement": "TGI", "setting": "[9]", "value": "> 100", "unit": "µM"}, {"measurement": "TGI", "setting": "[10]", "value": "> 100", "unit": "µM"}]}
{"smiles": "Oc1c(Cl)cc(Cl)cc1Sc1cc(Cl)cc(Cl)c1O", "values": [{"measurement": "GI50", "setting": "[1]", "value": "3.1 µM and 2.26 µM"}, {"measurement": "TGI", "setting": "[1]", "value": "15 µM and 6.76 µM"}, {"measurement": "GI50", "setting": "[2]", "value": "3.88 µM and 4.02 µM"}, {"measurement": "TGI", "setting": "[2]", "value": "15.3 µM and 14.5 µM"}, {"measurement": "GI50", "setting": "[3]", "value": "2.56 µM and 2.34 µM"}, {"measurement": "TGI", "setting": "[3]", "value": "10.8 µM and 7.76 µM"}, {"measurement": "GI50", "setting": "[4]", "value": "2.88 µM and 2.72 µM"}, {"measurement": "TGI", "setting": "[4]", "value": "6.5 µM and 7.5 µM"}, {"measurement": "GI50", "setting": "[5]", "value": "6.03 µM and 2.97 µM"}, {"measurement": "TGI", "setting": "[5]", "value": "26.2 µM and 15 µM"}, {"measurement": "GI50", "setting": "[6]", "value": "3.46 µM and 3.4 µM"}, {"measurement": "TGI", "setting": "[6]", "value": "16.1 µM and 11.8 µM"}, {"measurement": "GI50", "setting": "[7]", "value": "3.8 µM and 2.55 µM"}, {"measurement": "TGI", "setting": "[7]", "value": "11.7 µM and 13.1 µM"}, {"measurement": "GI50", "setting": "[8]", "value": "3.17 µM and 2.91 µM"}, {"measurement": "TGI", "setting": "[8]", "value": "12 µM and 23.5 µM"}, {"measurement": "GI50", "setting": "[9]", "value": "3.44 µM and 3.06 µM"}, {"measurement": "TGI", "setting": "[9]", "value": "14.8 µM and 12.5 µM"}, {"measurement": "GI50", "setting": "[10]", "value": "2.93 µM and 3 µM"}, {"measurement": "TGI", "setting": "[10]", "value": "11.2 µM and 10.8 µM"}]}
